Data reported in article PMC8699473, “An Easily Expandable Multi-Drug LC-MS Assay for the Simultaneous Quantification of 57 Oral Antitumor Drugs in Human Plasma” (Cancers, 2021).
Like-named read-outs stand apart in the source and are kept apart here.

Tests used:
[1] = Freeze-thaw stability in spiked pooled human plasma; format: physicochemical
[2] = Autosampler stability of ready for injection samples; format: physicochemical, human

Structure (SMILES)	Freeze-Thaw Accuracy [%] ([1]; validation standard 2xLLOV)	Freeze-Thaw Accuracy [%] ([1]; validation standard LLOV)	Freeze-Thaw Accuracy [%] ([1]; validation standard MOV)	Freeze-Thaw Accuracy [%] ([1]; validation standard ULOV)	Autosampler (24h, 4°C) Accuracy [%] ([2]; validation standard 2xLLOV)	Autosampler (72h, 4°C) Accuracy [%] ([2]; validation standard 2xLLOV)	Autosampler (24h, 4°C) Accuracy [%] ([2]; validation standard LLOV)	Autosampler (72h, 4°C) Accuracy [%] ([2]; validation standard LLOV)	Autosampler (24h, 4°C) Accuracy [%] ([2]; validation standard MOV)	Autosampler (72h, 4°C) Accuracy [%] ([2]; validation standard MOV)	Autosampler (24h, 4°C) Accuracy [%] ([2]; validation standard ULOV)	Autosampler (72h, 4°C) Accuracy [%] ([2]; validation standard ULOV)	Freeze-Thaw Accuracy [%] [1]	Autosampler (24h, 4°C) Accuracy [%] [2]	Autosampler (72h, 4°C) Accuracy [%] [2]
COC(=O)c1ccc2c(c1)NC(=O)/C2=C(\Nc1ccc(N(C)C(=O)CN2CCN(C)CC2)cc1)c1ccccc1 [Nintedanib]	103.0%	93.2%	96.9%	95.8%	104.2%	104.4%	91.3%	99.8%	102.7%	104.6%	102.7%	101.4%	–	–	–
C=CC(=O)Nc1cc(Nc2nccc(-c3cn(C)c4ccccc34)n2)c(OC)cc1N(C)CCN(C)C [Osimertinib]	93.7%	95.6%	96.2%	92.7%	104.2%	99.1%	90.3%	91.2%	103.8%	100.3%	98.4%	99.1%	–	–	–
Cc1ccc(Nc2nccc(N(C)c3ccc4c(C)n(C)nc4c3)n2)cc1S(N)(=O)=O [Pazopanib]	103.5%	102.7%	103.9%	100.5%	103.7%	99.4%	101.3%	99.0%	101.7%	97.9%	99.8%	99.0%	–	–	–
Cc1ccc(C(=O)Nc2ccc(CN3CCN(C)CC3)c(C(F)(F)F)c2)cc1C#Cc1cnc2cccnn12 [Ponatinib]	101.8%	–	99.3%	100.2%	106.1%	106.1%	–	–	106.1%	102.3%	101.9%	102.0%	101.5%	104.7%	104.7%
CNC(=O)c1cc(Oc2ccc(NC(=O)Nc3ccc(Cl)c(C(F)(F)F)c3)c(F)c2)ccn1 [Regorafenib]	97.1%	101.6%	96.2%	98.6%	101.6%	101.1%	107.3%	102.1%	101.4%	104.4%	104.2%	99.3%	–	–	–
CN(C)C(=O)c1cc2cnc(Nc3ccc(N4CCNCC4)cn3)nc2n1C1CCCC1 [Ribociclib]	103.9%	86.3%	–	92.4%	103.0%	–	84.0%	–	104.1%	–	89.8%	–	–	–	–
CNCc1ccc(-c2[nH]c3cc(F)cc4c3c2CCNC4=O)cc1 [Rucaparib]	93.7%	104.4%	97.8%	95.5%	98.1%	96.4%	104.5%	104.1%	104.6%	103.8%	100.1%	102.4%	–	–	–
N#CC[C@H](C1CCCC1)n1cc(-c2ncnc3[nH]ccc23)cn1 [Ruxolitinib]	94.7%	92.5%	96.2%	97.2%	100.5%	97.7%	93.9%	94.4%	102.4%	99.7%	100.1%	99.7%	–	–	–
Cc1c(C(=O)Nc2ccc(N3C[C@@H](C)O[C@@H](C)C3)nc2)cccc1-c1ccc(OC(F)(F)F)cc1 [Sonidegib]	97.9%	103.7%	96.5%	99.0%	101.5%	101.9%	109.3%	100.0%	99.4%	101.1%	101.3%	98.1%	–	–	–
CNC(=O)c1cc(Oc2ccc(NC(=O)Nc3ccc(Cl)c(C(F)(F)F)c3)cc2)ccn1 [Sorafenib]	97.6%	103.3%	96.9%	98.7%	103.1%	104.1%	112.0%	104.9%	101.0%	103.5%	101.7%	98.3%	–	–	–
CCN(CC)CCNC(=O)c1c(C)[nH]c(/C=C2\C(=O)Nc3ccc(F)cc32)c1C [Sunitinib]	102.8%	117.0%	99.1%	100.3%	113.8%	111.0%	113.8%	119.4%	111.8%	114.3%	113.4%	119.5%	–	–	–
O=C1CCC(N2C(=O)c3ccccc3C2=O)C(=O)N1 (stereo not shown) [Thalidomide]	78.3%	83.3%	74.7%	72.8%	102.3%	101.6%	98.2%	98.0%	105.2%	96.2%	96.9%	97.8%	–	–	–
COc1cc2nccc(Oc3ccc(NC(=O)Nc4cc(C)on4)c(Cl)c3)c2cc1OC [Tivozanib]	96.8%	90.0%	99.9%	98.1%	101.5%	102.7%	94.0%	95.0%	104.6%	102.4%	101.6%	103.1%	–	–	–
CC(=O)Nc1cccc(-n2c(=O)n(C3CC3)c(=O)c3c(Nc4ccc(I)cc4F)n(C)c(=O)c(C)c32)c1 [Trametinib]	97.6%	93.8%	102.5%	97.0%	105.8%	101.8%	101.7%	100.1%	103.1%	103.5%	97.7%	97.0%	–	–	–
CCCS(=O)(=O)Nc1ccc(F)c(C(=O)c2c[nH]c3ncc(-c4ccc(Cl)cc4)cc23)c1F [Vemurafenib]	98.2%	101.9%	97.5%	99.2%	103.5%	102.3%	112.7%	109.4%	99.5%	101.8%	104.1%	99.4%	–	–	–
CC1(C)CCC(CN2CCN(c3ccc(C(=O)NS(=O)(=O)c4ccc(NCC5CCOCC5)c([N+](=O)[O-])c4)c(Oc4cnc5[nH]ccc5c4)c3)CC2)=C(c2ccc(Cl)cc2)C1 [Venetoclax]	102.4%	105.4%	97.8%	101.9%	106.9%	104.7%	106.3%	103.3%	100.0%	102.3%	103.7%	102.7%	–	–	–
CCC1=C[C@@H]2CN(C1)Cc1c([nH]c3ccccc13)[C@@](C(=O)OC)(c1cc3c(cc1OC)N(C)[C@H]1[C@@](O)(C(=O)OC)[C@H](OC(C)=O)[C@]4(CC)C=CCN5CC[C@]31[C@@H]54)C2 [Vinorelbine]	105.8%	120.0%	95.7%	96.7%	89.9%	87.3%	65.0%	67.9%	97.7%	99.6%	102.4%	99.5%	–	–	–
